How the values were obtained:
Type in all cases: cell-based
Bac. subtilis = test: Inhibition test (microdilution assay), inhibition of bacterial growth; conditions: Bacillus subtilis; for inhibition at 100 µM: c = 100 μM
Description: (§1) Inhibition Test Culture media used: Müller-Hinton broth Caso agar plates Test method: Microdilution assay The test organisms are cultured overnight in […]-Honton broth at 35° C. +/-2° C. The suspension of organisms is centrifuged (5000 rev./min, 4° C.); the pellet is resuspended in fresh medium and incubated for a further 2 h. The pellet is then resuspended in 0.9% NaCl solution and the number of cells is adjusted to about 10^8 CFU/ml using standard curves. The resulting suspension is then diluted with Müller-Hinton broth to about 10^4 CFU/ml(=inoculum). Starting from the inoculum, a determination of the number of organisms is carried out by spiralling out (2×0.1 ml) a suitable dilution stage onto CASO agar plates. Test procedure: Specific concentrations of the potential inhibitors are dispensed into a 96-well microtitre assay plate, wells A1-H1remaining empty. The wells of the microtitre assay plates are inoculated with the adjusted suspension of organisms. Wells A1-H1serve as growth controls. Immediately after inoculation and after incubation of the plates for 24 h and 48 h, they are measured in a plate reader (Biotek EL 311) at 550 nm. From the crude data, the inhibition of bacterial and fungal growth is calculated in percent.

Staph. aureus = test: as above; conditions: Staphylococcus aureus; for inhibition at 100 µM: c = 100 μM
Description: as §1

Strept. pneumoniae = test: as above; conditions: Streptococcus pneumoniae; c = 100 μM
Description: as §1

HepG2 = test: Assay 1: cell growth by acid phosphatase activity; conditions: Homo sapiens; for GI50: HepG2, acid phosphatase, substance 0.1-100 μM, 48 h and 96 h, read-out: Cell proliferation GI50: HepG2; for inhibition at up to 100 µM: HepG2, printed beside GI50 >100 μM, concentration not given, read-out: Cell proliferation: HepG2, % inhibition
Description: (§2) Assay 1 Measurement of cell growth by determination of the activity of the intracellular enzyme acid phosphatase. The added substrate p-nitrophenyl phosphate is converted by acid phosphatase into p-nitrophenol, which absorbs light at 405 nm, the intensity of the yellow coloration being proportional to the number of cells. Incubation of the cell lines HEPG-2 and A549 together with the substance (0.1-100 μM) was carried out for 48 h and 96 h at 37° C. and 5% CO2.

A549 = test: Assay 1: cell growth by acid phosphatase activity; conditions: Homo sapiens; for GI50: A549, acid phosphatase, substance 0.1-100 μM, 48 h and 96 h, read-out: Cell proliferation GI50: A549; for inhibition at up to 100 µM: A549, printed beside GI50 >100 μM, concentration not given, read-out: Cell proliferation: A549, % inhibition
Description: as §2

Candida albicans = test: Inhibition test (microdilution assay), inhibition of fungal growth; conditions: read-out: Inhibition of bacterial growth: Candida albicans; for inhibition at 100 µM: c = 100 μM
Description: as §1

GI50 (HepG2) | GI50 (A549) | SMILES | inhibition at 100 µM (Bac. subtilis) | inhibition at 100 µM (Staph. aureus) | inhibition at 100 µM (Strept. pneumoniae) | inhibition at up to 100 µM (HepG2) | inhibition at up to 100 µM (A549) | inhibition at 100 µM (Candida albicans) | inhibition at 25 µM (Bac. subtilis; c = 25 μM) | inhibition at 12.5 µM (Staph. aureus; c = 12.5 μM) | inhibition at 50 µM (Bac. subtilis; c = 50 μM) | inhibition at 50 µM (Staph. aureus; c = 50 μM) | inhibition at 50 µM (Candida albicans; c = 50 μM) | inhibition at 200 µM (Candida albicans; c = 200 μM)
> 100 µM | > 100 µM | COc1ccc2[nH]cc(-c3cncn3CCc3ccc(O)cc3)c2c1 [Example 9] | 38% | 25% | 85% | 14% | 31% | 0% |  |  |  |  |  | 
 |  | c1ccc(COc2cc3c(-c4cncn4C4CCc5ccccc54)c[nH]c3cn2)cc1 (stereo not shown) [Example 12] |  |  |  |  |  | 60% | 100% | 80% |  |  |  | 
> 100 µM | > 100 µM | c1ccc(CN2CCC(n3cncc3-c3c[nH]c4ccccc34)CC2)cc1 [Example 3] | 100% | 100% | 80% | 48% | 26% | 60% |  |  |  |  |  | 
 | > 100 µM | c1ccc(COc2cc3c(-c4cncn4C4CCCc5ccccc54)c[nH]c3cn2)cc1 (stereo not shown) [Example 1] | 100% | 100% | 100% |  | 22% | 0% |  |  |  |  |  | 
> 100 µM | > 100 µM | Cc1[nH]c2ccccc2c1-c1cncn1CCNC(C)C [Example 8] | 39% | 82% | 0% | 0% | 10% | 0% |  |  |  |  |  | 
 |  | Fc1ccc(-c2ncn(C3CCCc4ccccc43)c2-c2c[nH]c3cnc(OCc4ccccc4)cc23)cc1 (stereo not shown) [Example 11] |  |  |  |  |  |  |  |  | 80% | 60% | 100% | 
> 100 µM | > 100 µM | Cc1[nH]c2ccccc2c1-c1cncn1C1CCCc2ccccc21 (stereo not shown) [Example 7] | 76% | 40% | 0% | 0% | 0% | 0% |  |  |  |  |  | 
> 100 µM | > 100 µM | CC(C)CCn1cncc1-c1c[nH]c2cnc(OCc3ccccc3)cc12 [Example 5] | 100% | 100% | 90% | 38% | 33% | 0% |  |  |  |  |  | 
 |  | O[C@@H]1Cc2ccccc2C1n1cncc1-c1c[nH]c2cnc(OCc3ccccc3)cc12 (stereo partly shown) [Example 13] | 90% | 90% |  |  |  |  |  |  |  |  |  | 90%
> 100 µM | > 100 µM | Cc1[nH]c2ccccc2c1-c1cncn1C1CCN(Cc2ccccc2)CC1 [Example 2] | 100% | 100% | 90% | 1% | 12% | 60% |  |  |  |  |  | 
> 100 µM | > 100 µM | c1ccc(COc2cc3c(-c4cncn4C4CCN(Cc5ccccc5)CC4)c[nH]c3cn2)cc1 [Example 4] | 100% | 100% | 90% | 65% | 41% | 70% |  |  |  |  |  | 
> 100 µM | > 100 µM | c1ccc(COc2cc3c(-c4cncn4CCc4c[nH]c5ccccc45)c[nH]c3cn2)cc1 [Example 6] | 10% | 85% | 10% | 17% | 19% | 0% |  |  |  |  |  | 

From patent US6699883B1, “Pyrroloimidazole derivatives and their use as medicaments” (Morphochem AG, priority 1999, dated 2004)
